Experimental data published in patent publication US20130184272A1, “DIABETES THERAPEUTIC AGENT” (TAKEDA PHARMACEUTICAL COMPANY LIMITED, priority 2010, published 2013).
“And” between values parts separate entries of the source, which are not always exact repeats. Equal values may be shown once. Marks after values point to notes of the source that are not given here.

Assays:
C2C12 cell = experiment: Sugar metabolism promoting activity in muscle cell (lactic acid production); type: cell-based, Mouse; settings: Mus musculus, 48 h; compound 1 μM, 2 days, C2C12 myotubes; without drug = 100%; read-out: lactic acid production promoting action (%)
Procedure: • (1) In the same manner as in Example 1, C2C12 cell was cultured in a growth medium. After reaching subconfluence of not less than 90%, the medium was exchanged with a differentiation medium and the cells were cultured for about 7 days while exchanging the medium every 2 or 3 days until the cells differentiated to form a myotube. • (2) After confirmation of myotube formation under a microscope, the test compound (1 μM) was added to a differentiation medium and cultured for 2 days. The cells were washed with Krebs-Ringer HEPES phosphate buffer (10 mM HEPES, pH 7.4, 131 mM NaCl, 4.7 mM KCl, 2.5 mM CaCl2—2H2O, 1.2 mM MgSO4—7H2O, 1.2 mM KH2PO4), the medium was exchanged with Krebs-Ringer HEPES phosphate buffer added with 5 mM glucose, 0.2% fatty acid-free bovine serum albumin, and cultured at 37° C. for 4 hr. • (3) The lactic acid concentration of the culture supernatant was measured using Detarminer LA kit (Kyowa Medex Co., Ltd.).
The numerical values in Table 2 show the concentration of the compound addition group with the concentration of lactic acid without addition of a drug as 100%.

Female KKA^y mice [1] = experiment: Anti-diabetes action and dyslipidemia improving effect in KKA^y mouse; type: in vivo; settings: 2 weeks, control group = 100
Procedure: Female KKA^y mice (12-week-old, CLEA Japan, Inc.) were bred while allowing free ingestion of both feed and water. The mice were bred for acclimation with powder CE-2 (CLEA Japan, Inc.) from 2 weeks before administration of the compound. The body weight and plasma markers were measured and, at 14 weeks of age, they were divided such that the measured values were uniform with those of the control group. The compound of Reference Example 1, 2, 7, 8, 9 or 22 was administered for 2 weeks in a mixed feed (0.01-0.0001%). On the last day, plasma levels of glucose, insulin, total cholesterol and neutral lipid were measured.

KLF15 = experiment: Adipocyte-related gene expression level: KLF15; type: cell-based
Procedure: In the same manner as in Example 10, the cells were cultured, and total RNA was extracted using Rneasy96 kit (Qiagen) from the cell immediately before and 6 days after addition of […] of the compound of Reference Example 1. cDNA was prepared from the total RNA using TaqMan reverse transcription reagent (Applied Biosystems), quantitative PCR was performed by ABI PRISM7000 or 7000 using TaqMan Universal PCR master mix (Applied Biosystems) and commercially available primers, and the expression level of each gene was determined. The commercially available primers used were as follows. • C/EBPα (Mm00514283_s1, TaqMan Gene Expression Assays, Applied Biosystems) • C/EBPβ (Mm00843434_s1, TaqMan Gene Expression Assays, Applied Biosystems) • KLF15 (Mm00517792_m1, TaqMan Gene Expression Assays, Applied Biosystems) • PPARγ (Mm00440945_m1, TaqMan Gene Expression Assays, Applied Biosystems)
The expression level was amended by the amount of 36B4 (Takeda Pharmaceutical Company Limited) in the same manner as in Example 3, and the relative values to the value immediately before addition of each gene compound as 1 are shown in Table 16. The data in Table 16 show mean±standard deviation at n=3-4 (n is the number of samples).

C2C12 cells = experiment: Action on muscle cell differentiation suppressed by TNF-α (creatine kinase activity); type: cell-based, Mouse; settings: for creatine kinase activity (mIU/μg): TNF-a 30 ng/mL, 3 days
Procedure: • (1) In the same manner as in Example 1, C2C12 cells were cultured in a growth medium to not less than 90% confluence. • (2) The medium was exchanged with a differentiation medium, the compound of Reference Example 1 together with TNF-α were added, and the cells were cultured for 3 days. • (3) The cells were washed with PBS, 0.5% NP-40 solution was added, and the cells were lysed by freeze-thawing. The cell extract was centrifuged and the creatine kinase activity in the supernatant was measured as an index of muscle differentiation. The creatine kinase activity was measured using CPKII Test Wako (Wako Pure Chemical Industries, Ltd.) according to the manual of the kit.
The data in Table 9 show mean±standard deviation at n=3 (n is the number of samples).

Female KKA^y mice [2] = experiment: Improvement of insulin resistance in KKA^y mouse (plasma glucose AUC after insulin); type: in vivo; settings: 4 weeks, insulin 0.5 U/kg i.p.
Procedure: Female KKA^y mice (12-week-old, CLEA Japan, Inc.) were bred while allowing free ingestion of both feed and water. The mice were bred for acclimation with powder CE-2 (CLEA Japan, Inc.) from 2 weeks before administration of the compound. The body weight and plasma markers were measured and, at 14 weeks of age, they were divided into 4 groups (6 per group) such that the measured values were uniform. The compound of Reference Example 1 was administered for 4 weeks in a mixed feed (0.01-0.09 mg/kg/day). After fasting overnight, insulin was intraperitoneally administered at 0.5 U/kg and, after 30, 60 and 120 min, blood samples were collected.

[3] = test system: Mouse-derived myoblast line C2C12 cell; experiment: Cell differentiation promoting activity in myoblast (creatine kinase activity); type: cell-based; settings: Mus musculus, C2C12, 48 h; compound at 0.01 μM (**); 2 days; without compound = 100%; read-out: creatine kinase activating action (%)
Procedure: • (1) Mouse-derived myoblast line C2C12 cell (Dainippon Pharmaceutical Co., Ltd.) was subcultured in a high glucose Eagle's modified Dulbecco's medium (GIBCO) added with 10% calf fetal bovine serum (GIBCO), 100 unit/mL penicillin and 100 μg/mL streptomycin (hereinafter to be referred to as a growth medium), plated at 5000 cells/cm^2 and cultured at 37° C., under 5% CO2. • (2) When the cells reached subconfluence of not less than 90%, the medium was exchanged with high glucose Eagle's modified Dulbecco's medium (GIBCO) added with (i) 2% horse serum (GIBCO) and (ii) penicillin, streptomycin and a test compound (hereinafter to be referred to as a differentiation medium) and the cells were cultured for 2 days. To the control group was added DMSO solution instead of the test compound. • (3) The cells were washed with PBS, 0.5% NP-40 solution was added, and the cells were lysed by freeze-thawing. The cell extract was centrifuged and the creatine kinase activity in the supernatant was measured as an index of muscle differentiation. The creatine kinase activity was measured using CPKII Test Wako (Wako Pure Chemical Industries, Ltd.) according to the manual of the kit.
The numerical values in Table 1 show creatine kinase activity of the compound addition group when the creatine kinase activity without addition of the compound is 100%, and * means measurement with addition of the compound at 10 μM, ** at 0.01 μM, and others at 1 μM.

SMILES	activity at 1 µM (C2C12 cell) [%]	plasma glucose (%) (Female KKA^y mice [1]; mixed feed dose 0.0001 %)	plasma insulin (%) (Female KKA^y mice [1]; mixed feed dose 0.0001 %)	plasma neutral lipid (%) (Female KKA^y mice [1]; mixed feed dose 0.0001 %)	plasma total cholesterol (%) (Female KKA^y mice [1]; mixed feed dose 0.0001 %)	KLF15 expression level (amended by 36B4) (KLF15; 10 μm [sic] of compound, 6 days after addition, value immediately before addition = 1)	expression level of KLF15 (in words) (KLF15; C3H10T1/2 cell)	creatine kinase activity decreased by TNF-α (in words) (C2C12 cells)	creatine kinase activity (mIU/μg) (C2C12 cells; compound 0 nM as printed)	creatine kinase activity (mIU/μg) (C2C12 cells; compound 1 nM)	creatine kinase activity (mIU/μg) (C2C12 cells; compound 3 nM)	glucose AUC0-120 min (Female KKA^y mice [2]; 0.01 mg/kg/day in mixed feed) [mg·h/dL]	glucose AUC0-120 min (mg h/dL) (Female KKA^y mice [2]; 0.03 mg/kg/day in mixed feed)	glucose AUC0-120 min (mg h/dL) (Female KKA^y mice [2]; 0.09 mg/kg/day in mixed feed)	activity at 0.01 µM [3] [%]	plasma glucose (%) (Female KKA^y mice [1]; mixed feed dose 0.01 %)	plasma insulin (%) (Female KKA^y mice [1]; mixed feed dose 0.01 %)	plasma neutral lipid (%) (Female KKA^y mice [1]; mixed feed dose 0.01 %)	plasma total cholesterol (%) (Female KKA^y mice [1]; mixed feed dose 0.01 %)
Cc1ncccc1Oc1sc(C(N)=O)c2c1-c1c(cnn1C)CC2 [Ref. Ex. 1, 1-methyl-8-[(2-methylpyridin-3-yl)oxy]-4,5-dihydro-1H-thieno[3,4-g]indazole-6-carboxamide]	247	53.2 ± 19.1	27.3 ± 19.5	38.9 ± 11.0	61.6 ± 10.8	1.4 ± 0.4	decreased	recovered	0.12 mIU/μg and 0.15 mIU/μg	0.25	0.39	241.0	184.7* mg h/dL	182.5* mg h/dL	175	–	–	–	–
Cn1ncc2c1-c1c(Oc3cccnc3)sc(C(N)=O)c1CC2 [Ref. Ex. 7, 1-methyl-8-(pyridin-3-yloxy)-4,5-dihydro-1H-thieno[3,4-g]indazole-6-carboxamide]	254	–	–	–	–	–	–	–	–	–	–	–	–	–	183	40.3 ± 4.5	2.9 ± 1.7	33.9 ± 8.6	64.8 ± 12.0
